# Laboratory results from ChEMBL document CHEMBL4251653, “In vivo potent BM635 analogue with improved drug-like properties” (Eur J Med Chem, 2018).
# Assays:
# HepG2 [1] = assay: Cytotoxicity against human HepG2 cells assessed as compound concentration causing changes in membrane permeability by Cell Health assay; assay type: cell-based
# [2] = Cmax in C57BL/6 mouse at 50 mg/kg, po after 1 to 24 hrs by LC-MS/MS method; assay type: ADME, organism-based; parameters: dose 50 mg/kg, route oral; settings: in vivo
# [3] = test system: Mycobacterium tuberculosis; assay type: functional, H37Rv
# [4] = Volume of distribution at steady state in C57BL/6 mouse at 1 mg/kg, iv after 1 to 24 hrs by LC-MS/MS method; assay type: ADME, organism-based; settings: in vivo, read-out: Vdss
# [5] = test system: Mycobacterium tuberculosis; assay: microbe, parasite or virus in culture; settings: 144 h
# Description: Antitubercular activity against Mycobacterium tuberculosis after 6 days by resazurin-based fluorescence assay
# [6] = Clearance in C57BL/6 mouse at 1 mg/kg, iv after 1 to 24 hrs by LC-MS/MS method; assay type: ADME, organism-based; settings: in vivo
# HepG2 [7] = assay: Cytotoxicity against human HepG2 cells assessed as compound concentration causing changes in nuclear morphology by Cell Health assay; assay type: cell-based
# in vitro = settings: human, HepG2 cells
# Description: Selectivity index, ratio of TC50 for human HepG2 cells to MIC for Mycobacterium tuberculosis
# [8] = Solubility of the compound in FaSSIF at pH 6.5 incubated for 4 hrs by UPLC-MS method; assay type: physicochemical
# Albumin = Albumin (Homo sapiens, UniProt P02768); assay: Binding affinity to human serum albumin; assay type: ADME; settings: isolated protein
# HepG2 [9] = assay: Cytotoxicity against human HepG2 cells assessed as compound concentration causing changes in mitochondrial potential by Cell Health assay; assay type: cell-based
# [10] = test system: Mycobacterium tuberculosis; assay: microbe, parasite or virus in culture; settings: H37Rv, THP-1, 96 h
# Description: Antitubercular activity against Mycobacterium tuberculosis H37Rv infected in human THP1 macrophages incubated for 4 days by luciferase reporter gene assay
# [11] = Oral bioavailability in C57BL/6 mouse at 50 mg/kg after 1 to 24 hrs by LC-MS/MS method; assay type: ADME, organism-based; settings: in vivo
# [12] = Tmax in C57BL/6 mouse at 50 mg/kg, po after 1 to 24 hrs by LC-MS/MS method; assay type: ADME, organism-based; settings: in vivo
# [13] = Half life in C57BL/6 mouse at 1 mg/kg, iv after 1 to 24 hrs by LC-MS/MS method; assay type: ADME, organism-based; settings: in vivo
# [14] = Cytotoxicity against human HepG2 cells incubated for 48 hrs by Cell-titer Glo assay; assay type: cell-based; settings: read-out: TC50
# [15] = molecular target: Voltage-gated inwardly rectifying potassium channel KCNH2 (Homo sapiens, UniProt Q12809); assay: Inhibition of human ERG by [3H]dofetilide binding displacement assay
# [16] = Permeability of the compound by artificial membrane permeability assay; assay type: ADME; settings: PAMPA; read-out: permeability
# [17] = Lipophilicity, log D of the compound at pH 7.4 by UV-HPLC method; assay type: physicochemical; settings: buffer, read-out: logD
# Mus musculus [18] = assay: Dose normalized AUC (0 to infinity) in C57BL/6 mouse at 1 mg/kg, iv after 1 to 24 hrs by LC-MS/MS method; assay type: ADME, organism-based; settings: in vivo
# [19] = AUC (0 to infinity) in C57BL/6 mouse at 1 mg/kg, iv after 1 to 24 hrs by LC-MS/MS method; assay type: ADME, organism-based; parameters: dose 1 mg/kg, time infinity, route intravenous; settings: in vivo
# Mus musculus [20] = assay: Tlast in C57BL/6 mouse at 50 mg/kg, po after 1 to 24 hrs by LC-MS/MS method; assay type: ADME, organism-based; settings: in vivo
# [21] = Kinetic solubility in pH 7.4 phosphate buffered saline incubated for 1 hr by chemiluminescent nitrogen detection method; assay type: physicochemical; settings: read-out: Kinetic_solubility
# [22] = Clearance in C57BL/6 mouse at 4 mg/kg, iv after 1 to 24 hrs by LC-MS/MS method; assay type: ADME, organism-based; settings: in vivo
# [23] = Volume of distribution at steady state in C57BL/6 mouse at 4 mg/kg, iv after 1 to 24 hrs by LC-MS/MS method; assay type: ADME, organism-based; settings: in vivo, read-out: Vdss
# [24] = Half life in C57BL/6 mouse at 4 mg/kg, iv after 1 to 24 hrs by LC-MS/MS method; assay type: ADME, organism-based; settings: in vivo
# [25] = AUC (0 to infinity) in C57BL/6 mouse at 4 mg/kg, iv after 1 to 24 hrs by LC-MS/MS method; assay type: ADME, organism-based; parameters: dose 4 mg/kg, route intravenous, time infinity; settings: in vivo
# Mus musculus [26] = assay: Dose normalized AUC (0 to infinity) in C57BL/6 mouse at 4 mg/kg, iv after 1 to 24 hrs by LC-MS/MS method; assay type: ADME, organism-based; settings: in vivo
# [27] = test system: Mycobacterium tuberculosis; assay type: functional, H37Rv; remark: listed apart in the source
# Albumin, sequence (P02768 whole entry): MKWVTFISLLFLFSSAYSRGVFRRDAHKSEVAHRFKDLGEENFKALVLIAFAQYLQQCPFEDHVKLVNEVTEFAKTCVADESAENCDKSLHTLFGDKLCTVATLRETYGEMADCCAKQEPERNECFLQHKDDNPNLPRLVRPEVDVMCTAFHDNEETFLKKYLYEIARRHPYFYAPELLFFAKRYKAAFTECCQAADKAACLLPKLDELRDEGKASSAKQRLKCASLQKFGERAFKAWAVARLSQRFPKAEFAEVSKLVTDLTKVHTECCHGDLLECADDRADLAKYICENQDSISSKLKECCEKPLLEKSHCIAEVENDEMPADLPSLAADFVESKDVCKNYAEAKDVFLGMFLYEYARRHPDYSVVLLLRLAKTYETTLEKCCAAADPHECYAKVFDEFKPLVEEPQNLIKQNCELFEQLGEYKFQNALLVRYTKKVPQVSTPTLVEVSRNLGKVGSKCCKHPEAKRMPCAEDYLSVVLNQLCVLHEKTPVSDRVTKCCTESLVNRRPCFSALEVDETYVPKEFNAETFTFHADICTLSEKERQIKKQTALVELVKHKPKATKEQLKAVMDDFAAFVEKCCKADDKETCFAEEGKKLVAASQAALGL
# Voltage-gated inwardly rectifying potassium channel KCNH2, sequence (Q12809 whole entry): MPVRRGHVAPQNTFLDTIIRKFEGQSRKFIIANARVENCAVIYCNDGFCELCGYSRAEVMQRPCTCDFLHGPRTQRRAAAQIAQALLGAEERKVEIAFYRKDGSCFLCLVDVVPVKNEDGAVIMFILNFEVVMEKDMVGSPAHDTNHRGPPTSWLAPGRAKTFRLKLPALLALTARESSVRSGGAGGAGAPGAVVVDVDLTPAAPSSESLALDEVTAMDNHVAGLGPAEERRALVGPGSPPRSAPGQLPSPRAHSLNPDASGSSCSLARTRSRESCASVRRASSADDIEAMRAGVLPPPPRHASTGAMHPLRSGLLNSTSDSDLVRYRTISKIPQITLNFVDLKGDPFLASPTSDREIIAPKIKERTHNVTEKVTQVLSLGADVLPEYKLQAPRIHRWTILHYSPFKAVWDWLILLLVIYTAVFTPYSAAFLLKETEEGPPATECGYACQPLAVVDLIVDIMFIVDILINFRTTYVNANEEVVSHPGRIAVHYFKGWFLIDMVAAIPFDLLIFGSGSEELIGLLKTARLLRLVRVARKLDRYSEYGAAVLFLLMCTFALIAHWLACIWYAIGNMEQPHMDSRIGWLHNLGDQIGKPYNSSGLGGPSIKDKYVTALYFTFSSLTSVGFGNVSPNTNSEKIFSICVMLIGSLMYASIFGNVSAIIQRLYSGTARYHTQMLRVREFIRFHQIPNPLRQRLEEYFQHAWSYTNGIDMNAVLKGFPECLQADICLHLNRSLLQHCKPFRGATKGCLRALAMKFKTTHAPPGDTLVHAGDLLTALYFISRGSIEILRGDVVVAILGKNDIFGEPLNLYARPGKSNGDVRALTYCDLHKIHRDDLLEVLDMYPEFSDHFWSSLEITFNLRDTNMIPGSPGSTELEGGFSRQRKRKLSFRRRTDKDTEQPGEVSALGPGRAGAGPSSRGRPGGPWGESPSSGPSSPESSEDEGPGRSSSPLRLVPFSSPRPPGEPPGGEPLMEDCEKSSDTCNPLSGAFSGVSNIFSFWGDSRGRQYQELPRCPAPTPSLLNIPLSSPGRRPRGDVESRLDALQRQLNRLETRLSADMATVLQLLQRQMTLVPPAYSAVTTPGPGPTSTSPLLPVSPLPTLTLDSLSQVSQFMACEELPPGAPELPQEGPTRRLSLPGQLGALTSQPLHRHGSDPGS
Structure (SMILES),Activity (HepG2 [1]) [µM],Cmax [2] [µg/mL],Activity [3] [log10CFU],MIC [5] [µM],Activity (HepG2 [7]) [µM],solubility at 4 h [8] [mg/mL],Activity (Albumin) [%],Activity (HepG2 [9]) [µM],bioavailability [11] [%],Tmax [12] [min],CC50 at 48 h [14] [µM],Papp [16] [nm/s],logD [17],Tlast (Mus musculus [20]) [h],solubility kinetic at 1 h [21] [µM],further results
Cc1c(CN2CCOCC2)cc(-c2ccc(C(C)C)cc2)n1C1CCCOC1 (centres undefined),> 200,0.548,0.1,0.15,> 200,0.043,92.85,> 200,23,54,50,730,6.86,8,241,Vd [4]: 3.5 L/kg; clearance [6]: 7.5 L/h/kg; selectivity ratio (in vitro): 333; IC50 [10]: 0.3 µM; half-life [13]: 24 min; IC50 [15]: 10 µM; AUC/dose (Mus musculus [18]): 138 ng·h/mL/mg/kg; AUC(0-inf) [19]: 0.138 µg·h/mL
Cc1c(CN2CCOCC2)cc(-c2ccc(C(C)C)cc2)n1C(C)C,32,0.177,1.5,0.15,25,0.249,94.11,32,1.2,42,20,720,7.68,7.3,199,clearance [22]: 1.01 L/h/kg; Vd [23]: 1.8 L/kg; half-life [24]: 102 min; AUC(0-inf) [25]: 4.02 µg·h/mL; AUC/dose (Mus musculus [26]): 1006 ng·h/mL/mg/kg
COc1c(N2C[C@@H]3CCCN[C@@H]3C2)c(F)cc2c(=O)c(C(=O)O)cn(C3CC3)c12 [MOXIFLOXACIN],–,–,–,–,–,–,–,–,–,–,–,–,–,–,–,Activity [27]: 3.1 log10CFU
